According to patent US20180185370A1, “PYRAZINOQUINAZOLINONE DERIVATIVES WITH ANTIBACTERIAL ACTIVITY, METHODS AND USES THEREOF” (UNIVERSIDADE DO PORTO, priority 2015, published 2018):
Like-named read-outs stand apart in the source and are kept apart here.

What was measured:
S. aureus B1 [1] = assay: Synergy screening with antibiotic discs, disc diffusion method; assay type: cell-based, Staphylococcus aureus; settings: for zone of inhibition on agar plates: not in combination, MRSA isolate S. aureus B1; for inhibition zone: S. aureus B1
Protocol: (§1) Synergistic studies between compounds and antibiotics. A screening susceptibility test to assess the combined effect between the compounds and antibiotics was conducted using the disc diffusion method on MH, against three multidrug-resistant isolates, E. coli G1, S. aureus B1 and E. faecalis W1. A set of antibiotic discs (Oxoid, Basingstoke, England) was selected based on the resistance of the isolates towards those antibiotics. Based on the results of the previous assay, an unexpected synergetic effect between fiscalin C (see FIG. 1I, equation v) and oxacillin (Sigma-Aldrich, St. Louis, Mo., USA) was determined using, in particular, a broth microdilution Checkerboard method against the MRSA isolate (S. aureus B1). The fractional inhibitory concentration (FIC) was calculated as follows: FIC of drug A (FIC A)=MIC of drug A in combination/MIC of drug A alone, and FIC of drug B (FIC B)=MIC of drug B in combination/MIC of drug B alone. The FIC index (ΣFIC), calculated as the sum of each FIC, was interpreted as follows: ΣFIC 0.5, synergy; 0.5<ΣFIC 4, no interaction; 4<ΣFIC, antagonism.

S. aureus B1 [2] = assay: Broth microdilution Checkerboard method; assay type: cell-based, Staphylococcus aureus; settings: for combined effect with oxacillin: fiscalin C with oxacillin, MRSA (S. aureus B1)
Protocol: as §1, with “Based on the results of the previous assay, an unexpected synergetic effect between fiscalin C (see FIG. 1I, equation v) and oxacillin (Sigma-Aldrich, St. Louis, Mo., USA) was determined using, in particular, a broth microdilution Checkerboard method against the MRSA isolate (S. aureus B1).” left out

S. aureus ATCC 25923 = assay: Antibacterial susceptibility testing, broth microdilution (MIC/MBC); assay type: cell-based, Staphylococcus aureus; settings: for MIC: Staphylococcus aureus, ATCC25923, read-out: Minimum inhibitory concentration-MIC
Protocol: (§2) Bacterial strains and growth conditions. Five reference strains, Staphylococcus aureus ATCC 25923, Bacillus subtilis ATCC 6633, E. faecalis ATCC 29212, Escherichia coli ATCC 25922 and Pseudomonas aeruginosa ATCC 27853, and three multidrug-resistant isolates from environment, S. aureus B1 (a MRSA isolated from public buses), Enterococcus faecalis W1 (a VRE isolated from river water) and E. coli G1 (isolated from seagull feces) were used. Bacteria were grown overnight at 37° C. in Mueller-Hinton agar (MH—BioKar diagnostics, Allonne, France) prior to obtain be used in the subsequently described bioassays.
(§3) Antibacterial susceptibility testing. The minimum inhibitory concentration (MIC) values of the compounds of FIGS. 1D, 1E, 1G, 1H (equation i-iv) and 11 (equations v-x) were determined, in particular, by a broth microdilution technique, following the recommendations of the Clinical and Laboratory Standards Institute. Stock solutions of 10 mg/ml in DMSO were used to prepare in-test concentrations ranging from 2 to 256 μg/ml. Ciprofloxacin in the concentration range from 0.03125 to 16 μg/ml was used, in particular, as control drug in the experiment. The MIC was defined as the lowest concentration of compound that has inhibited the visible growth. The minimum bactericidal concentration (MBC) was determined by spreading on MH plates, 10 μL collected from the wells corresponding to the MIC and to higher concentrations, with further incubation for 24 h at 37° C.; the lowest concentration at which no growth occurred on MH was defined as the MBC.

S. aureus B1 (MRSA) = assay: as above; assay type: cell-based, Staphylococcus aureus; settings: for MIC: Staphylococcus aureus, read-out: Minimum inhibitory concentration-MIC
Protocol: as §2, §3

B. subtilis ATCC 6633 = assay: as above; assay type: cell-based, Bacillus subtilis; settings: for MIC: Bacillus subtilis, ATCC6633, read-out: Minimum inhibitory concentration-MIC
Protocol: as §2, §3

P. aeruginosa ATCC 27853 = assay: Antibacterial susceptibility testing, broth microdilution (MIC); assay type: cell-based, Pseudomonas aeruginosa; settings: for MIC: Pseudomonas aeruginosa, ATCC27853, read-out: Minimum inhibitory concentration-MIC
Protocol: as §2, §3

E. coli ATCC 25922 = assay: as above; assay type: cell-based, Escherichia coli; settings: for MIC: Escherichia coli, ATCC25922, read-out: Minimum inhibitory concentration-MIC
Protocol: as §2, §3

E. faecalis ATCC 29212 = assay: Antibacterial susceptibility testing, broth microdilution (MIC/MBC); assay type: cell-based, Enterococcus faecalis; settings: for MIC: Enterococcus faecalis, ATCC29212, read-out: Minimum inhibitory concentration-MIC
Protocol: as §2, §3

E. faecalis W1 (VRE) = assay: as above; assay type: cell-based, Enterococcus faecalis; settings: for MIC: Enterococcus faecalis, read-out: Minimum inhibitory concentration-MIC
Protocol: as §2, §3

Row | Compound | Minimum inhibitory concentration-MIC (S. aureus ATCC 25923) | Minimum inhibitory concentration-MIC (S. aureus B1 (MRSA); S. aureus B1 (MRSA)) | Minimum inhibitory concentration-MIC (B. subtilis ATCC 6633) | Minimum inhibitory concentration-MIC (P. aeruginosa ATCC 27853) | Minimum inhibitory concentration-MIC (E. coli ATCC 25922) | Minimum inhibitory concentration-MIC (E. faecalis ATCC 29212) | Minimum inhibitory concentration-MIC (E. faecalis W1 (VRE); E. faecalis W1 (VRE)) | further results
1 | CC1(C)S[C@@H]2[C@H](NC(=O)[C@H](N)c3ccccc3)C(=O)N2[C@H]1C(=O)O [Ampicillin, ampicillin, reference compound] |  |  |  |  |  |  |  | zone of inhibition on agar plates (S. aureus B1 [1]): neither fiscalin C, ampicillin or oxacillin produced any zone of inhibition; MIC (S. aureus B1 [2]; Staphylococcus aureus, B1): 128 µg/mL
2 | CC(C)[C@]12NC(=O)[C@H](Cc3c1[nH]c1ccccc31)n1c2nc2ccccc2c1=O [FIG. 1D, sartorymensin] | > 256 µg/mL | >256 µg/mL | >256 µg/mL | >256 µg/mL | >256 µg/mL | >256 µg/mL | >256 µg/mL | 
3 | CC(=O)O[C@H](c1nc2ccccc2c(=O)n1[C@@H]1C[C@]2(OC1=O)c1ccccc1N1C(=O)C(C)(C)N(O)[C@H]12)C(C)C [FIG. 1E, tryptoquivaline] |  |  |  |  |  |  |  | MIC (S. aureus ATCC 25923): > 256 µg/mL; MIC (S. aureus B1 (MRSA); MRSA): > 256 µg/mL; MIC (B. subtilis ATCC 6633): > 256 µg/mL; MIC (P. aeruginosa ATCC 27853): > 256 µg/mL; MIC (E. coli ATCC 25922): > 256 µg/mL; MIC (E. faecalis ATCC 29212): > 256 µg/mL; MIC (E. faecalis W1 (VRE); VRE): > 256 µg/mL
4 | O=C1OC2(CC1n1cnc3ccccc3c1=O)C(=O)Nc1ccccc12 (centres unmarked) [FIG. 1G, 3′-(4oxoquinazolin-3yl) spiro [1H-indole-3,5′-oxolane]-2,2′-dione] |  |  |  |  |  |  |  | MIC (S. aureus ATCC 25923): > 256 µg/mL; MIC (S. aureus B1 (MRSA); S. aureus B1 (MRSA)): > 256 µg/mL; MIC (B. subtilis ATCC 6633): > 256 µg/mL; MIC (P. aeruginosa ATCC 27853): > 256 µg/mL; MIC (E. coli ATCC 25922): > 256 µg/mL; MIC (E. faecalis ATCC 29212): > 256 µg/mL; MIC (E. faecalis W1 (VRE); E. faecalis W1 (VRE)): > 256 µg/mL
5 | CC1(C)C(=O)N2c3ccccc3C3(CC(n4cnc5ccccc5c4=O)C(=O)O3)C2N1O (centres unmarked) [FIG. 1H (eq. i), tryptoquivaline L] | > 256 µg/mL | >256 µg/mL | >256 µg/mL | >256 µg/mL | >256 µg/mL | >256 µg/mL | >256 µg/mL | 
6 | C[C@H]1C(=O)N2c3ccccc3[C@@]3(C[C@@H](n4cnc5ccccc5c4=O)C(=O)O3)[C@@H]2N1O [FIG. 1H (eq. ii), tryptoquivaline H] | > 256 µg/mL | >256 µg/mL | >256 µg/mL | >256 µg/mL | >256 µg/mL | >256 µg/mL | >256 µg/mL | 
7 | C[C@@H]1N[C@@H]2N(C1=O)c1ccccc1[C@@]21C[C@@H](n2cnc3ccccc3c2=O)C(=O)O1 [FIG. 1H (eq. iii), tryptoquivaline F] | >256 µg/mL | >256 µg/mL | >256 µg/mL | >256 µg/mL | >256 µg/mL | >256 µg/mL | >256 µg/mL | 
8 | CC(C)[C@@H]1NC(=O)[C@@H](C[C@]2(O)c3ccccc3N3C(=O)C(C)(C)N[C@H]32)n2c1nc1ccccc1c2=O [FIG. 1I (eq. v), fiscalin C] | >256 µg/mL | >256 µg/mL | >256 µg/mL | >256 µg/mL | >256 µg/mL | >256 µg/mL | >256 µg/mL | inhibition zone (S. aureus B1 [1]; fiscalin C in combination with ampicillin): 8 mm; inhibition zone (S. aureus B1 [1]; fiscalin C in combination with oxacillin): 10 mm; zone of inhibition on agar plates (S. aureus B1 [1]): neither fiscalin C, ampicillin or oxacillin produced any zone of inhibition; MIC (S. aureus B1 [2]; drug alone, S. aureus B1): >512 µg/mL; combined effect with ampicillin (S. aureus B1 [2]; fiscalin C with ampicillin, S. aureus B1): indifferent; combined effect with oxacillin (S. aureus B1 [2]; listed as Fiscalin C): synergistic effect; combined effect with oxacillin (S. aureus B1 [2]; listed as fiscalin C): clear synergistic effect
9 | CC(C)[C@@H]1NC(=O)[C@@H](C[C@]2(O)c3ccccc3N3C(=O)[C@H](C)N[C@H]32)n2c1nc1ccccc1c2=O [FIG. 1I (eq. vii), fiscalin A] | >256 µg/mL | >256 µg/mL | >256 µg/mL | >256 µg/mL | >256 µg/mL | >256 µg/mL | >256 µg/mL | 
10 | CC(C)[C@H]1NC(=O)[C@@H](C[C@]2(O)c3ccccc3N3C(=O)[C@H](C)N[C@H]32)n2c1nc1ccccc1c2=O [FIG. 1I (eq. viii), epi-fiscalin A] | >256 µg/mL | >256 µg/mL | >256 µg/mL | >256 µg/mL | >256 µg/mL | >256 µg/mL | >256 µg/mL | 
11 | Cc1onc(-c2ccccc2)c1C(=O)N[C@@H]1C(=O)N2[C@@H]1SC(C)(C)[C@@H]2C(=O)O [Oxacillin, oxacillin, reference compound] |  |  |  |  |  |  |  | zone of inhibition on agar plates (S. aureus B1 [1]): neither fiscalin C, ampicillin or oxacillin produced any zone of inhibition; MIC (S. aureus B1 [2]; Staphylococcus aureus, drug alone, S. aureus B1, read-out: MIC): 128 µg/mL
12 | epi-fiscalin C [FIG. 1I (eq. vi)] | >256 µg/mL | >256 µg/mL | >256 µg/mL | >256 µg/mL | >256 µg/mL | >256 µg/mL | >256 µg/mL | 
13 | epi-neofiscalin A [FIG. 1I (eq. x)] | >256 µg/mL | >256 µg/mL | >256 µg/mL | >256 µg/mL | >256 µg/mL | >256 µg/mL | >256 µg/mL | 
14 | tryptoquivaline O [FIG. 1H (eq. iv)] | >256 µg/mL | >256 µg/mL | >256 µg/mL | >256 µg/mL | >256 µg/mL | >256 µg/mL | >256 µg/mL | 
